Converted amounts (≈) assume the structure as drawn. Like-named read-outs stand apart in the source and are kept apart here.
How the values were obtained:
[1] = system: S. pyogenes S B352; assay: IN VITRO antibacterial activity, S. pyogenes S B352; format: cell-based; details: Streptococcus pyogenes, SB352; S. pyogenes S B352; nutrient broth, 24 hours at 37° C; read-out: MIC
Experimental: (§1) In the Tables above MIC stands for minimum inhibitory concentration and
(§2) the results were obtained by providing halving dilutions of the test
(§3) compound in nutrient broth (concentrations usually range from 1/10,000 to
(§4) 1/320,000). These solutions are inoculated with the test organism,
(§5) incubated for 24 hours at 37° C and then examined for the presence
(§6) of growth. A test compound found to have a minimum inhibitory
(§7) concentration (MIC) of 1/160,000 is generally considered as a lead.

[2] = system: S. pyogenes R 353; assay: IN VITRO antibacterial activity, S. pyogenes R 353; format: cell-based; details: Streptococcus pyogenes, R353; S. pyogenes R 353; nutrient broth, 24 hours at 37° C; read-out: MIC
Experimental: as §1, §2, §3, §4, §5, §6, §7

[3] = system: S. fecalis 353; assay: IN VITRO antibacterial activity, S. fecalis 353; format: cell-based; details: S. fecalis 353; nutrient broth, 24 hours at 37° C; read-out: MIC
Experimental: as §1, §2, §3, §4, §5, §6, §7

[4] = system: E. Coli 198 (ATCC 1/229); assay: IN VITRO antibacterial activity, E. Coli 198 (ATCC 1/229); format: cell-based; details: Escherichia coli, ATCC1; E. Coli 198 (ATCC 1/229); nutrient broth, 24 hours at 37° C; read-out: MIC
Experimental: as §1, §2, §3, §4, §5, §6, §7

[5] = system: A. aerogenes 357; assay: IN VITRO antibacterial activity, A. aerogenes 357; format: cell-based; details: Klebsiella aerogenes; A. aerogenes 357; nutrient broth, 24 hours at 37° C; read-out: MIC
Experimental: as §1, §2, §3, §4, §5, §6, §7

[6] = system: S. pullorum 358; assay: IN VITRO antibacterial activity, S. pullorum 358; format: cell-based; details: Salmonella enterica; S. pullorum 358; nutrient broth, 24 hours at 37° C; read-out: MIC
Experimental: as §1, §2, §3, §4, §5, §6, §7

[7] = system: P. aeruginosa 359; assay: IN VITRO antibacterial activity, P. aeruginosa 359; format: cell-based; details: Pseudomonas aeruginosa; P. aeruginosa 359; nutrient broth, 24 hours at 37° C; read-out: MIC
Experimental: as §1, §2, §3, §4, §5, §6, §7

[8] = system: Pr. mirabilis 360; assay: IN VITRO antibacterial activity, Pr. mirabilis 360; format: cell-based; details: Proteus mirabilis; Pr. mirabilis 360; nutrient broth, 24 hours at 37° C; read-out: MIC
Experimental: as §1, §2, §3, §4, §5, §6, §7

[9] = system: Pr. vulgaris 316; assay: IN VITRO antibacterial activity, Pr. vulgaris 316; format: cell-based; details: Proteus vulgaris; Pr. vulgaris 316; nutrient broth, 24 hours at 37° C; read-out: MIC
Experimental: as §1, §2, §3, §4, §5, §6, §7

[10] = system: Kl. pneumoniae 855 (ATCC 10081); assay: IN VITRO antibacterial activity, Kl. pneumoniae 855 (ATCC 10081); format: cell-based; details: Klebsiella pneumoniae, ATCC10081, nutrient broth, 24 hours at 37° C
Experimental: as §1, §2, §3, §4, §5, §6, §7

[11] = system: S. marcesceus 854 (ATCC → 103); assay: IN VITRO antibacterial activity, S. marcesceus 854 (ATCC → 103); format: cell-based; details: S. marcesceus 854 (ATCC → 103); nutrient broth, 24 hours at 37° C; read-out: MIC
Experimental: as §1, §2, §3, §4, §5, §6, §7

[12] = system: P. aeruginosa 87442; assay: IN VITRO antibacterial activity against resistant organisms, P. aeruginosa 87442; format: cell-based
Experimental: as §1, §2, §3, §4, §5, §6, §7

[13] = system: P. aeruginosa 377; assay: IN VITRO antibacterial activity against resistant organisms, P. aeruginosa 377; format: cell-based
Experimental: as §1, §2, §3, §4, §5, §6, §7

[14] = system: E. coli B989; assay: IN VITRO antibacterial activity against resistant organisms, E. coli B989; format: cell-based; details: Escherichia coli; resistant organism E. coli B989; nutrient broth, 24 hours at 37° C; read-out: MIC
Experimental: as §1, §2, §3, §4, §5, §6, §7

[15] = system: E. coli B1002; assay: IN VITRO antibacterial activity against resistant organisms, E. coli B1002; format: cell-based; details: Escherichia coli
Experimental: as §1, §2, §3, §4, §5, §6, §7

[16] = in vivo; details: mouse, iv, in mice (i.v), acute toxicity
[17] = system: strains of E. Coli resistant to neomycin and paromomycin; assay: Antibacterial activity against resistant E. Coli; format: cell-based
Experimental: as §1, §2, §3, §4, §5, §6, §7

[18] = system: strains of P. Aeruginosa resistant to neomycin B and paromomycin I; assay: Antibacterial activity against resistant P. Aeruginosa; format: cell-based
Experimental: as §1, §2, §3, §4, §5, §6, §7

[19] = system: S. pyogenes S; assay: IN VITRO antibacterial activity, S. pyogenes S; format: cell-based; details: Streptococcus pyogenes; S. pyogenes S; nutrient broth, 24 hours at 37° C; read-out: MIC
Experimental: as §1, §2, §3, §4, §5, §6, §7

[20] = system: S. pyogenes R; assay: IN VITRO antibacterial activity, S. pyogenes R; format: cell-based; details: Streptococcus pyogenes; S. pyogenes R; nutrient broth, 24 hours at 37° C; read-out: MIC
Experimental: as §1, §2, §3, §4, §5, §6, §7

[21] = system: S. fecalis; assay: IN VITRO antibacterial activity, S. fecalis; format: cell-based; details: S. fecalis; nutrient broth, 24 hours at 37° C; read-out: MIC
Experimental: as §1, §2, §3, §4, §5, §6, §7

[22] = system: E. coli 198; assay: IN VITRO antibacterial activity, E. coli 198; format: cell-based; details: Escherichia coli; E. coli 198; nutrient broth, 24 hours at 37° C; read-out: MIC
Experimental: as §1, §2, §3, §4, §5, §6, §7

[23] = system: A. aerogenes; assay: IN VITRO antibacterial activity, A. aerogenes; format: cell-based; details: Klebsiella aerogenes; A. aerogenes; nutrient broth, 24 hours at 37° C; read-out: MIC
Experimental: as §1, §2, §3, §4, §5, §6, §7

[24] = system: S. pullorm; assay: IN VITRO antibacterial activity, S. pullorm; format: cell-based; details: S. pullorm; nutrient broth, 24 hours at 37° C; read-out: MIC
Experimental: as §1, §2, §3, §4, §5, §6, §7

[25] = system: P. aeruginosa; assay: IN VITRO antibacterial activity, P. aeruginosa; format: cell-based; details: Pseudomonas aeruginosa; P. aeruginosa; nutrient broth, 24 hours at 37° C; read-out: MIC
Experimental: as §1, §2, §3, §4, §5, §6, §7

[26] = system: P. mirabilis; assay: IN VITRO antibacterial activity, P. mirabilis; format: cell-based; details: Proteus mirabilis; P. mirabilis; nutrient broth, 24 hours at 37° C; read-out: MIC
Experimental: as §1, §2, §3, §4, §5, §6, §7

[27] = system: K. pneumoniae; assay: IN VITRO antibacterial activity, K. pneumoniae; format: cell-based; details: Klebsiella pneumoniae; K. pneumoniae; nutrient broth, 24 hours at 37° C; read-out: MIC
Experimental: as §1, §2, §3, §4, §5, §6, §7

[28] = system: S. marcesceus; assay: IN VITRO antibacterial activity, S. marcesceus; format: cell-based; details: S. marcesceus; nutrient broth, 24 hours at 37° C; read-out: MIC
Experimental: as §1, §2, §3, §4, §5, §6, §7

[29] = system: E. coli B996; assay: IN VITRO antibacterial activity, E. coli B996 (resistant to Kanamycin and paromomycin); format: cell-based; details: Escherichia coli, nutrient broth, 24 hours at 37° C
Experimental: as §1, §2, §3, §4, §5, §6, §7

## NC[C@@H]1O[C@H](O[C@H]2[C@@H](O)[C@H](O[C@@H]3[C@@H](O)[C@H](N)C[C@H](N)[C@H]3O[C@H]3O[C@H](CN)[C@@H](O)[C@H](O)[C@H]3N)O[C@@H]2CN)[C@H](N)[C@@H](O)[C@@H]1O [5"-Amino-5"-deoxyneomycin B, 5"-amino-5"-deoxyneomycin B]
[1]
  MIC: < 0.1 µg/mL
[2]
  MIC: < 0.1 µg/mL
[3]
  MIC: 0.8 µg/mL (≈ 1.3 µM)
[4]
  MIC: 0.8 µg/mL (≈ 1.3 µM)
[5]
  MIC: 0.8 µg/mL (≈ 1.3 µM)
[6]
  MIC: 0.4 µg/mL (≈ 0.652 µM)
[7]
  MIC: 1.6 µg/mL (≈ 2.61 µM)
[8]
  MIC: 0.8 µg/mL (≈ 1.3 µM)
[9]
  MIC: 0.8 µg/mL (≈ 1.3 µM)
[10]
  MIC: 0.4 µg/mL (≈ 0.652 µM)
[11]
  MIC: 0.4 µg/mL (≈ 0.652 µM)
[12]; Pseudomonas aeruginosa, resistant organism P. aeruginosa 87442, nutrient broth, 24 hours at 37° C, read-out: MIC
  MIC: 0.8 µg/mL (≈ 1.3 µM)
[13]; Pseudomonas aeruginosa, resistant organism P. aeruginosa 377, nutrient broth, 24 hours at 37° C, read-out: MIC
  MIC: 1.6 µg/mL (≈ 2.61 µM)
[14]
  MIC: 1.6 µg/mL (≈ 2.61 µM)
[15]; resistant organism E. coli B1002, nutrient broth, 24 hours at 37° C, read-out: MIC
  MIC: 3.2 µg/mL (≈ 5.21 µM)
[16]
  LD50: 60 to 80 mg/kg
[17]
  antibacterial activity against resistant E. Coli: particularly effective
[18]
  antibacterial activity against resistant P. Aeruginosa: particularly effective

## NC[C@@H]1O[C@H](O[C@H]2[C@@H](O)[C@H](O[C@@H]3[C@@H](O)[C@H](N)C[C@H](N)[C@H]3O[C@H]3O[C@H](CO)[C@@H](O)[C@H](O)[C@H]3N)O[C@@H]2CN)[C@H](N)[C@@H](O)[C@@H]1O [5"-amino-5"-deoxyparomomycin I]
[19]
  MIC: < 0.2 µg/mL
[20]
  MIC: 0.4 µg/mL (≈ 0.651 µM)
[21]
  MIC: 6.4 µg/mL (≈ 10.4 µM)
[22]
  MIC: 6.4 µg/mL (≈ 10.4 µM)
[23]
  MIC: 1.6 µg/mL (≈ 2.6 µM)
[24]
  MIC: 0.8 µg/mL (≈ 1.3 µM)
[25]
  MIC: 12.5 µg/mL (≈ 20.3 µM)
[26]
  MIC: 1.6 µg/mL (≈ 2.6 µM)
[27]
  MIC: 0.8 µg/mL (≈ 1.3 µM)
[28]
  MIC: 0.8 µg/mL (≈ 1.3 µM)
[29]
  MIC: 12.5 µg/mL (≈ 20.3 µM)
[17]
  antibacterial activity against resistant E. Coli: particularly effective
[18]
  antibacterial activity against resistant P. Aeruginosa: particularly effective

## NC[C@H]1O[C@H](O[C@H]2[C@H](O)[C@@H](O[C@H]3O[C@H](CO)[C@@H](O)[C@H](N)[C@H]3O)[C@H](N)C[C@@H]2N)[C@H](O)[C@@H](O)[C@@H]1O [Kanamycin]
[12]; Pseudomonas aeruginosa, 87442, 24 h
  MIC: 0.8 µg/mL (≈ 1.65 µM)
[13]; Pseudomonas aeruginosa, 377, 24 h
  MIC: 3.2 µg/mL (≈ 6.6 µM)
[14]
  MIC: 100 µg/mL (≈ 206 µM)
[15]; B1002, 24 h
  MIC: < 100 µg/mL

Source: patent publication US4066753A, “Neomycin and paromomycin derivatives” (Canadian Patents and Development Limited, priority 1976, dated 1978)
